According to PubChem BioAssay AID179 (DTP/NCI, 2004):
Active and inactive are the calls of the source.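 Rule for the calls: active = compounds giving half or more protection of infected cells from virus-caused growth loss, again on retest; inactive = the rest.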

System: CEM cells HIV-1 protection, formazan growth assay
Assay: NCI AIDS Antiviral Assay
Settings: for IC50: measured here: growth of uninfected CEM cells
Summary of the method: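 Human CEM cells, uninfected and HIV-1-infected, received five drug concentrations, and growth was read by soluble formazan assay. Compounds giving at least 50% protection were retested; reproducible 100% protection defined confirmed active.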

Structure (SMILES) | outcome | EC50 [µM] | IC50 [µM]
CCOC(=O)c1c(-c2[nH]c(C(=O)OCc3ccccc3)c(C)c2C(=O)OCC)[nH]c(C(=O)OCc2ccccc2)c1C | inactive |  | 
C=C(C)COc1ccc(C2OCC(CC)C(CCC)O2)cc1 (stereo unspecified) |  | > 200 | 89.1
COc1c(O)c2c(=O)cc3c4c5c(cc(=O)c6c(O)c(OC)c(CC(C)O)c(c(c1CC(C)O)c24)c65)OCO3 (stereo unspecified) |  | > 24 | 0.832
CC(=O)C(=Cc1cccc([N+](=O)[O-])c1)C(C)=O |  | > 155 | 20.4
C/C(O)=c1\cc(C#N)c(=C(C#N)C#N)nc1C | inactive |  | 
O=C(CC1(O)C(=O)Nc2c(Cl)ccc(Cl)c21)c1ccc2ccccc2c1 (stereo unspecified) |  | > 245 | 14.5
c1ccc(N=C2SC(=NC3CCCCC3)N(C3CCCCC3)C2=Nc2ccccc2)cc1 |  | > 200 | > 200
Cc1cc(=O)[nH]c(NNC(C#N)c2ccc(O)cc2)n1 (stereo unspecified) |  | > 182 | > 182
CCOC(=O)C(NC(=O)c1[nH]cnc1/N=N/N(C)C)C(C)C (stereo unspecified) |  | > 23.4 | > 23.4
NS(=O)(=O)c1ccc(CNC(=O)c2ccccc2SC(=O)OCCCCCl)cc1 |  | 4.68 | 129
Cc1nc2ccc(S(=O)(=O)Nc3ccccc3Cl)cc2c(=O)n1NC(=O)CNc1ccccc1Cl |  | > 200 | 170
O=C1N2CCN=C2c2ccccc2C1(O)c1ccccc1 (stereo unspecified) |  | > 200 | > 200
C(CCCCc1nnc(N2CCCCC2)o1)CCCc1nnc(N2CCCCC2)o1 |  | > 200 | > 200
Nc1nnc2ccccn12 |  | > 977 | > 977
Nc1nc(-c2ccc(Cl)cc2)nc2sc3c(c12)CCCCC3 |  | > 30.2 | > 30.2
CCOP(=O)(CN1CCNCCNCC1)OCC |  | > 200 | > 200
NS(=O)(=O)c1ccc(NC(NC(=O)C(C(F)(F)F)C(F)(F)F)(C(F)(F)F)C(F)(F)F)cc1 |  | > 200 | > 200
Cc1cc(C(C)(C)C)cc(Cc2cc(C(C)(C)C)cc(Cc3cc(C(C)(C)C)cc(C)c3O)c2O)c1O |  | > 20 | > 20
CCOC(=O)c1c(C(CC)C(=O)OC(C)C)cc2n(c1=O)Cc1c-2nc2ccccc2c1Cl (stereo unspecified) |  | > 10 | > 10
CCOc1nc(C(=O)O)cc2ccsc12 |  | > 589 | 501
Cc1cc(C)c(C(=O)/C(=C/c2ccccc2)c2ccccc2)c(C)c1 |  | > 15.8 | > 15.8
O=[N+]([O-])c1ccc2c(N=Nc3ccc4ccccc4c3O)c(O)cc(S(=O)(=O)O)c2c1 |  | > 200 | 27.5

Structure (SMILES) | outcome | EC50 [µM] | IC50 [µM]
Cc1cn(CC2(CO)CCC2)c(=O)[nH]c1=O |  | > 200 | > 200
CC(C)(C)[Si](C)(C)OC[C@H]1O[C@@H](n2ccc(=O)[nH]c2=O)[C@H](O[Si](C)(C)C(C)(C)C)[C@]1(O)[C@H](N=[N+]=[N-])C(N)=O |  | > 200 | 6.03
COC(=O)/C(C#N)=C(/NCc1ccccc1)Nc1ccccc1 |  | > 200 | 22.4
N#C/C(=C\c1ccc(-c2ccccc2)cc1)c1ccc(Cl)cc1 |  | > 100 | > 100
C/C=C1/C=CC2c3[nH]c4ccccc4c3CCN2C1 (stereo unspecified) |  | > 145 | 93.3
O=Cc1ccccc1OCCC[P+](c1ccccc1)(c1ccccc1)c1ccccc1 |  | > 200 | 2.51
NC(=O)c1cccc(OCC(O)CO)c1 (stereo unspecified) |  | > 200 | > 200
Nc1ccn([C@H]2CO[C@@H](CO)[C@@H]2O)c(=O)n1 |  | > 200 | > 200
CC1(C)CC(=O)C2=C(C1)Nc1ccccc1S2 | inactive |  | 
C=C1CN(Cc2ccccc2)[C@@H]2CCCCC[C@H](C#N)[C@H]12 |  | > 200 | 123
COc1cc2nncc(SCc3ccccc3)c2cc1OC |  | > 85.1 | > 85.1
FC(F)(F)c1cc(Cl)c2ccc3ccccc3c2n1 | inactive |  | 12.6
O=C(c1ccccc1)C1C[C@H]2CO[C@H](c3ccccc3)N2C1=O (stereo partly specified) |  | > 200 | 69.2
CCOC(=O)/C(=C\c1cccc(C#N)c1)C(C)=O |  | > 389 | 28.2
CC1(C)CNC[C@@]2(C)OCCO[C@@]3(C)CNCC(C)(C)[N-]C(=O)[C@@](C)(CNCC(C)(C)[N-]C3=O)OCCO[C@](C)(CNCC(C)(C)[N-]C2=O)C(=O)[N-]1.[Cu+2].[Cu+2] |  | > 200 | > 200
CC(=O)OC[C@]12CCC3[C@@]4(C)CCCC(C)(C)C4CC[C@@]3(C)C1CC(C1=CC(=O)OC1O)O2 (stereo partly specified) |  | > 200 | 0.759
COc1ccc([N+](=O)[O-])c2c(NCCCN(C)C)c3ccccc3nc12 |  | > 0.2 | 0.138
CC(C)c1cc(C(C)C)c(B(c2ccccc2)c2ccccc2)c(C(C)C)c1Br |  | > 200 | > 200
O=C1/C(=C/c2cc(O)c(O)c(O)c2)Oc2cc(O)cc(OC3OC(CO)C(O)C(O)C3O)c21 (stereo unspecified) | inactive |  | 
C=C1C2CCCC1C1(S(C)(=O)=O)CCCCC21O (stereo unspecified) | inactive |  | 
O=[N+]([O-])c1ccc(-n2nc3ccc4nonc4c3n2)cc1 |  | > 200 | > 200
